Test results from ChEMBL document CHEMBL1157499, “Synthesis and biological evaluation of 1-(benzenesulfonamido)-2-[5-(N-hydroxypyridin-2(1H)-one)]acetylene regioisomers: a novel class of 5-lipoxygenase inhibitors” (Bioorg Med Chem Lett, 2008).
Active and inactive are the calls of the source. The calls are words filed in the database; no cut-off is given here.

Test system: Rattus norvegicus
Assay: Antiinflammatory activity against carrageenan-induced paw edema in po dosed rat after 3 hrs
Format: functional

SMILES: NS(=O)(=O)c1ccc(C#Cc2ccc(=O)n(O)c2)cc1
- Activity: inactive

SMILES: NS(=O)(=O)c1ccccc1C#Cc1ccc(=O)n(O)c1
- ED50: 86 mg/kg

SMILES: NS(=O)(=O)c1cccc(C#Cc2ccc(=O)n(O)c2)c1
- Activity: inactive
